PMC7592081, “Single-Atom Nanozymes Linked Immunosorbent Assay for Sensitive Detection of Aβ 1-40: A Biomarker of Alzheimer's Disease” (Research, 2020)

System: T1, horseradish peroxidase (HRP)
T1 construct: gene PRXC1A; natural HRP
Experiment: steady-state kinetics, Michaelis-Menten fit, absorbance of oxidised TMB ([…] nm)
Format: biochemical, Armoracia rusticana
Conditions: co-substrate H2O2; acetate buffer pH 3.6 (printed for the nanozyme assay)

`Cc1cc(-c2cc(C)c(N)c(C)c2)cc(C)c1N` [3,3′,5,5′-tetramethylbenzidine] gave a Km of 427 µM.
